For experiment [1], the target named is T1, 5-HT3A M3M4 loop GSA mutant (Mus musculus, UniProt P23979, DELINS338-452GSA).
T1 construct: expressed in transfected cells; host or cells: Xenopus laevis oocytes injected with mRNA
Description: Two-electrode voltage clamp, oocytes expressing GSA M3M4 mutant. The format is cell-based. Particulars: 10 µM 5-HT, Xenopus oocytes. An excerpt: (§1) The mouse 5-HT3A cDNA with an N-terminal V5 epitope tag was cloned into the pXOON vector as previously described, and is referred to in this paper as “wild-type” (WT). The starting construct for all of the M3M4 loop replacement constructs used in this work was the 5-HT3A-ΔM3M4 construct formed by splicing the cytoplasmic end of M3 (M3-LVHK/QDLQRP…) to the cytoplasmic end of M4 (…WLRVGY/VLDRLL-M4). The splice was made at the site of the “/” to yield the sequence M3-LVHK/VLDRLL-M4 [34]. This removed 115 residues predicted to form the M3M4 loop.
The construction of the 5-HT3A-glvM3M4 chimera with the 5-HT3A M3M4 loop replaced by the GLIC heptapeptide M3M4 loop (SQPARAA) was described previously. Point mutations, alanine and Gly-Ser-Ala insertions into the 5-HT3A-ΔM3M4 construct were generated with the Quikchange site directed mutagenesis procedure (Stratagene, La Jolla, CA). […]
(§2) Currents were recorded under two-electrode voltage clamp from oocytes 2–5 d post-injection as described previously. […]
(§3) Desensitization rates were determined by fitting a single exponential decay function to the current data with Prism 4 software (GraphPad Software). Significant differences compared with wild-type were determined by a one-way ANOVA (p<0.05) using Dunnett's multiple comparison post-hoc test (p<0.05). […]

The target of experiment [2] is T2, 5-HT3A-A5 (M3M4 loop replaced by five alanines) (Mus musculus, UniProt P23979).
T2 construct: expressed in transfected cells; host or cells: Xenopus laevis oocytes injected with mRNA
T2 sequence (P23979 with tags, fused parts or gaps isoform P23979-2 limits assumed): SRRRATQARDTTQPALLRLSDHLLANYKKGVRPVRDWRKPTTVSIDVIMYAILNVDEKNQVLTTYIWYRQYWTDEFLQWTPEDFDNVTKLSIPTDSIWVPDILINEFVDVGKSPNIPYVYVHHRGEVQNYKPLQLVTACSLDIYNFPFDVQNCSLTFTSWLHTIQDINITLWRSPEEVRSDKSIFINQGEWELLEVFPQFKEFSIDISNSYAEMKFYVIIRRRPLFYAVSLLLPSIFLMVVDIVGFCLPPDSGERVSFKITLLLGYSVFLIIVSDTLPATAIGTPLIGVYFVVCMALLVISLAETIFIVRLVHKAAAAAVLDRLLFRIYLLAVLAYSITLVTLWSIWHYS
The experiment can be described thus: Two-electrode voltage clamp, oocytes expressing 5-HT3A-A5. The format is cell-based.
Source text: as §1
(§4) The construction of the 5-HT3A-glvM3M4 chimera with the 5-HT3A M3M4 loop replaced by the GLIC heptapeptide M3M4 loop (SQPARAA) was described previously. Point mutations, alanine and Gly-Ser-Ala insertions into the 5-HT3A-ΔM3M4 construct were generated with the Quikchange site directed mutagenesis procedure (Stratagene, La Jolla, CA). The entire coding region of all mutant constructs was verified by DNA sequencing (Albert Einstein College of Medicine DNA Sequencing Facility). The pXOON plasmid was linearized using NheI and capped mRNA prepared with T7 RNA polymerase (mMessage mMachine, Ambion, Austin, TX).
Use of Xenopus laevis in this study was carried out in strict accordance with the recommendations in the Guide for the Care and Use of Laboratory Animals of the National Institutes of Health. The protocol was approved by the Albert Einstein College of Medicine Animal Care and Use Committee (Protocol Number: 20081201). All surgery was performed under tricaine anesthesia, and all efforts were made to minimize suffering. Oocyctes were harvested from Xenopus (Nasco Science, Fort Atkinson, WI) anesthetized with 0.15% tricaine. […]
as §2, §3
A general note: Two-electrode voltage clamp is typically applied to oocytes expressing channels or transporters.

Experiment [3] deals with T3, 5-HT3A-A1 (M3M4 loop replaced by one alanine) (Mus musculus, UniProt P23979, DELINS338-452A).
T3 construct: expressed in transfected cells; host or cells: Xenopus laevis oocytes injected with mRNA
T3 sequence (P23979 with tags, fused parts or gaps isoform P23979-2 DELINS338-452A limits assumed): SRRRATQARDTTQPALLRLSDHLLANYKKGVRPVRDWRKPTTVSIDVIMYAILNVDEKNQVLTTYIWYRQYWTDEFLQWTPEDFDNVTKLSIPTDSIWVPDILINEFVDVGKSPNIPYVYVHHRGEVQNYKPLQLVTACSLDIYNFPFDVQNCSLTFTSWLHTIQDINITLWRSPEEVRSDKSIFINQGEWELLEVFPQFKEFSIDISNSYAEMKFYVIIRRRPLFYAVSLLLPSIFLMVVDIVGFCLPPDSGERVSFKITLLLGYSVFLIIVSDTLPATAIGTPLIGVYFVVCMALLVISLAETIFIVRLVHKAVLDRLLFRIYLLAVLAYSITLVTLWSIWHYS
The experiment can be described thus: Two-electrode voltage clamp, oocytes expressing 5-HT3A-A1. The format is cell-based.
Source text: as §1, §4
Use of Xenopus laevis in this study was carried out in strict accordance with the recommendations in the Guide for the Care and Use of Laboratory Animals of the National Institutes of Health. The protocol was approved by the Albert Einstein College of Medicine Animal Care and Use Committee (Protocol Number: 20081201). All surgery was performed under tricaine anesthesia, and all efforts were made to minimize suffering. Oocyctes were harvested from Xenopus (Nasco Science, Fort Atkinson, WI) anesthetized with 0.15% tricaine. Oocyctes were defolliculated by incubation in 2 mg ml^−1 Type 1A collagenase (Sigma-Aldrich, St. Louis, MO) in OR2 (85 mM NaCl, 2 mM KCl, 1 mM MgCl2, and 5 mM HEPES; pH adjusted to 7.5 with NaOH) for a 60 or 75 min. Oocytes were washed in OR2 and stored at 16°C in SOS medium: 100 mM NaCl, 2 mM KCl, 1 mM MgCl2, 1.8 mM CaCl2 5 mM HEPES, pH 7.5 with 100 IU ml^−1 penicillin, 100 µg ml^−1 streptomycin, and 250 ng ml^−1 amphotericin B (Invitrogen, Carlsbad, CA) and 5% horse serum (Sigma-Aldrich). 24 hrs following isolation, oocyctes were injected with 23 nl (2.3 ng) of mRNA and were kept in SOS media for 2–5 d at 16°C.
Currents were recorded under two-electrode voltage clamp from oocytes 2–5 d post-injection as described previously. […] The perfusion chamber volume was 200 µl. […]
as §3

The next experiment has as its target T4, 5-HT3A-A1 (Mus musculus, UniProt P23979, DELINS338-452A).
T4 construct: expressed in transfected cells; host or cells: Xenopus laevis oocytes injected with mRNA
The experiment can be described thus: Radioactive 5-HT binding to oocytes expressing 5-HT3A-A1. Particulars: 150 nM [3H]5-HT + 10 µM 5-HT, 5 min, 45 s cold wash. The protocol: Assays were terminated by five washes with ice cold CFFR buffer, followed by solubilization of the oocytes individually with 200 µl 5% SDS. Total wash time was 45 s. […] All data points represent the average of at least fifteen individual oocytes derived from three separate oocyte isolations.
To determine the extent of non-specific binding, all binding experiments were performed in parallel with diethylpyrocarbonate-(DEPC)-treated-water injected oocytes or uninjected oocytes.

T1 sequence (P23979 with tags, fused parts or gaps isoform P23979-2 DELINS338-452GSA limits assumed): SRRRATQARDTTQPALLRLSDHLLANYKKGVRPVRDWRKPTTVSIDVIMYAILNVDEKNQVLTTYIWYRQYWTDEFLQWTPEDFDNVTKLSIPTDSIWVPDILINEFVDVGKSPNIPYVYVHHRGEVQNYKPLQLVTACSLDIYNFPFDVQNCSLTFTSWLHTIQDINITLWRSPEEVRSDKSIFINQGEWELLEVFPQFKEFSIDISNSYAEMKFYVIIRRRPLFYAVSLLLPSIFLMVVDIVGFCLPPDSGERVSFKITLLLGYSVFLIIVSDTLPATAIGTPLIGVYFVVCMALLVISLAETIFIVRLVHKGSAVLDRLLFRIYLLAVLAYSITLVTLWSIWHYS

With `NCCc1c[nH]c2ccc(O)cc12` [5-HT, 5-hydroxytryptamine], the 5-HT induced current in experiment [1] came to 50±12 nA. Also, the “10–90% Activation rise time” value in experiment [2] (10 µM 5-HT) is 797 ± 108 ms; in experiment [3] (10 µM 5-HT), 1055 ± 17 ms. For the same compound, the “Imax (peak current)” value is 2500±500 nA in experiment [2] (10 µM 5-HT, Xenopus oocytes, -60 mV) and 1800±380 nA in experiment [3] (initial application of 10 µM 5-HT, Xenopus oocytes, -60 mV). Moreover, the “Desensitization time constant τ” value in experiment [2] (prolonged 10 µM 5-HT, may be limited by solution exchange) was found to be 6 ± 1 s; in experiment [3] (initial 10 µM 5-HT application, may be limited by solution exchange), 7 ± 1 s. The “Current induced by subsequent 5-HT application” value in experiment [3] (subsequent 5-HT application 360 s later) is recorded as 159±5 nA. Further, the “Radiolabeled 5-HT binding to oocytes” value at 5-HT3A-A1 is given as “undetectable”.

Source of the values: paper PMC3335078, “Length and Amino Acid Sequence of Peptides Substituted for the 5-HT3A Receptor M3M4 Loop May Affect Channel Expression and Desensitization” (PLoS ONE, 2012).
